Experimental data reported in patent US10874743B2, “IRAK degraders and uses thereof” (Kymera Therapeutics, Inc., priority 2017, dated 2020).

Assays:
IRAK4 = target: T1, IRAK4 (Homo sapiens, UniProt Q9NWZ3); assay: PBMC degradation assay (western blot, % IRAK4 degraded after 4 hours); format: cell-based; conditions: human PBMCs
T1 sequence (Q9NWZ3 1-460): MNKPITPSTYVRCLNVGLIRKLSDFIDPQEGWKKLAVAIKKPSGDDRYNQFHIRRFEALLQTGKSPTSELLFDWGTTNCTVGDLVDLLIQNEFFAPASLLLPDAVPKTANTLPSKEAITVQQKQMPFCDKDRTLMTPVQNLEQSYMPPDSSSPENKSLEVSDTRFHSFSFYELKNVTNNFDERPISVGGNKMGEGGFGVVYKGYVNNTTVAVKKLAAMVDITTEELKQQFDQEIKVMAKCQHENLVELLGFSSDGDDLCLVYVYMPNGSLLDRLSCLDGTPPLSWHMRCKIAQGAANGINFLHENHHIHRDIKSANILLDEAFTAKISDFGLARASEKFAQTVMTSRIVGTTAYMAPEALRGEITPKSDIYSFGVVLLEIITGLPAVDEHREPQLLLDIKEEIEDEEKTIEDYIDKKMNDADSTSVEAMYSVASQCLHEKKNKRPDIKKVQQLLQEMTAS
Protocol: Protocol summary of PBMC degradation studies from compound treatment through quantitation.
PBMC culture medium: Human peripheral blood mononuclear cells (PBMCs): RPMI+10% FBS (Heat-inactivated)+1% P/S.
Cells were cultured at a minimum of 2.5×10^6 c/mL. • PBMCs were incubated @ 37° C./5% CO2 and allowed to rest overnight. • Following overnight recovery, a cell count/viability assessment by trypan blue exclusion was performed. Cells densities were adjusted back to 2.5×10^6 c/mL (proceed with plating only if viability >80%). • In a 6 well plate, 2.0 mL of cells were added to each well for a minimum of 5×10^6 CT per treatment condition. Compounds dilutions were prepared from 20 mM stock and were added at a final 1000× dilution (0.1% DMSO concentration). • At the end of treatment, cells were harvested and spun @ 1800 rpm for 5 min. 1×PBS wash and spun again @ 1800 rpm for 5 min. Cell pellets were frozen and stored at −80° C. until further processing. • Lysates were generated by resuspending in lysis buffer. Protein quantification was performed with a BCA kit. • 20 μg of protein were loaded per lane and run on a 26-well 4-12% Bis-Tris SDS-page gel. • Transfers were performed on PVDF membranes using the BioRad Mixed MW turbo program for 7 min. • Membranes were blocked for one hour on a rocker at room temperature. • Primary antibodies were incubated overnight at 4° C. on a rocker. • Membranes were washed 3×TBST, 5 min each. • Secondaries were added and incubated for one hour on a rocker at room temperature. • Membranes were washed 3×TBST, 5 min each and rinsed well with deionized H2O. Membranes were scanned using the Licor Odessey CLx and bands were quantified using Image Studio Lite Version 5.2 software.
PBMC results at 4 hours. The letter codes indicate the percentage of IRAK4 degraded after 4 hours: A (>50% degradation), B (>20-50% degradation) and C (<20% degradation)

[1] = target: CRBN-DDB1 / GST-IRAK4 ternary complex (Homo sapiens, UniProt Q96SW2+Q9NWZ3); assay: AlphaLISA assay to determine ternary complex formation; format: binding
Protocol: The assay mixture contains 100 nM CRBN-DDB1, 100 nM GST-IRAK4, 20 μg/mL Nickle Chelate Donor Bead (Perkin Elmer Catalog # AS101D) and 20 μg/mL GSH Acceptor Bead (Perkin Elmer Catalog # AL109C) in a buffer containing 50 mM HEPES, pH 7.5, 100 mM NaCl, 0.1% BSA, 2 mM TCEP, 0.05% Tween-20. […] AlphaLISA signals (Excitation 680 nm and emission 615 nm) were recorded on a Perkin Elmer EnVision 2104 Multilabel reader. The raw data was converted to the relative amount of ternary complex formation by normalization to the signal generated by His-tagged GST protein only. The final data points were plotted and the curves were fit using non-linear regression using GraphPad Prism software.

Sequence of CRBN-DDB1 / GST-IRAK4 ternary complex (Q96SW2 whole entry, one chain of several): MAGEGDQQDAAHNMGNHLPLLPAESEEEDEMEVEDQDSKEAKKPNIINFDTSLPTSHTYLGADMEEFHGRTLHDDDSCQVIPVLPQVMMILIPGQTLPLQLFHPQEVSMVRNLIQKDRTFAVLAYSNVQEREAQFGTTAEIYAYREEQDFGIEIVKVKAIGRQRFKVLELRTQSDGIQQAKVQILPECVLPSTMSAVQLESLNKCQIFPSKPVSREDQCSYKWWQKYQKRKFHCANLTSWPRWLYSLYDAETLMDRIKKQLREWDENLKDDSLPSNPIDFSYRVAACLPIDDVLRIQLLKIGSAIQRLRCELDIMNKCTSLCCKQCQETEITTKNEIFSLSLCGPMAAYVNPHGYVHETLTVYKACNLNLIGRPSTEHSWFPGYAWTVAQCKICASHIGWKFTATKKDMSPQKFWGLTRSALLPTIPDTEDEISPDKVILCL
Sequence of CRBN-DDB1 / GST-IRAK4 ternary complex (Q16531 whole entry partner, one chain of several): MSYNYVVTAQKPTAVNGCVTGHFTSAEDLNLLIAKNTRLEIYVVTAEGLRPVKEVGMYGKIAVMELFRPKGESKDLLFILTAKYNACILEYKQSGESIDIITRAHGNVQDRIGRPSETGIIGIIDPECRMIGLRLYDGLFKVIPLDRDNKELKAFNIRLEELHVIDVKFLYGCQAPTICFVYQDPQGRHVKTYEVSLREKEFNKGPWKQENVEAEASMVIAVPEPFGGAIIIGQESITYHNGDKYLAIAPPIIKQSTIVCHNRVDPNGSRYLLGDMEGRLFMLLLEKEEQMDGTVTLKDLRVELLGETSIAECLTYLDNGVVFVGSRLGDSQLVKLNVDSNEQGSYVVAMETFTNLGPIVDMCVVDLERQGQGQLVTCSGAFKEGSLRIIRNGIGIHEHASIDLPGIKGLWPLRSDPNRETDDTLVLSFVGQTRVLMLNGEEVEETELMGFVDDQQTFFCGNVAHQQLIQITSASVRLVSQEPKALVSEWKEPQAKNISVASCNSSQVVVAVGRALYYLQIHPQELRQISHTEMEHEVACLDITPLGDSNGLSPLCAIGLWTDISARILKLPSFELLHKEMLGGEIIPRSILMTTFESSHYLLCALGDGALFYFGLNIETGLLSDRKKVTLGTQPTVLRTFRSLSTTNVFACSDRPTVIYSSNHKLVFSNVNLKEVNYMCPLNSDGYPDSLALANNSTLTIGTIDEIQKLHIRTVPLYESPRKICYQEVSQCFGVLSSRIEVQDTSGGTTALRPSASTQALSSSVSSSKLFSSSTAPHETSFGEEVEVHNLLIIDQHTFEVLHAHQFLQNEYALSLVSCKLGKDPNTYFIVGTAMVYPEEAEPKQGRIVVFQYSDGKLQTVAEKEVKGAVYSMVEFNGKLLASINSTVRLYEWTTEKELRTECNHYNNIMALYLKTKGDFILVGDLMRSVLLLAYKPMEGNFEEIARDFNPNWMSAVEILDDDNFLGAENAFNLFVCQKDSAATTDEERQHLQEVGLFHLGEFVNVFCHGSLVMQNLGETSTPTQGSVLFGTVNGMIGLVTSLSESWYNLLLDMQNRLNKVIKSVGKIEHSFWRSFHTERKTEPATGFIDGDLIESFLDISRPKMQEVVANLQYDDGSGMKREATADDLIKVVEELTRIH

Row | SMILES | PBMC % IRAK4 Degradation (IRAK4) | Average % Ternary Complex (N = 2) ([1]; compound concentration 1.00E−07 M) | Average % Ternary Complex (N = 2) ([1]; compound concentration 1.25E−08 M) | Average % Ternary Complex (N = 2) ([1]; compound concentration 1.28E−05 M) | Average % Ternary Complex (N = 2) ([1]; compound concentration 1.60E−06 M) | Average % Ternary Complex (N = 2) ([1]; compound concentration 2.00E−07 M) | Average % Ternary Complex (N = 2) ([1]; compound concentration 2.50E−08 M) | Average % Ternary Complex (N = 2) ([1]; compound concentration 3.20E−06 M) | Average % Ternary Complex (N = 2) ([1]; compound concentration 4.00E−07 M) | Average % Ternary Complex (N = 2) ([1]; compound concentration 5.00E−08 M) | Average % Ternary Complex (N = 2) ([1]; compound concentration 6.25E−09 M) | Average % Ternary Complex (N = 2) ([1]; compound concentration 6.40E−06 M) | Average % Ternary Complex (N = 2) ([1]; compound concentration 8.00E−07 M)
1 | NC(=O)c1nn(-c2ccc(C(=O)NCCCCCNCCNc3cccc4c3C(=O)N(C3CCC(=O)NC3=O)C4=O)cc2)cc1NC(=O)c1coc(-c2ccnc(NCC(F)(F)F)c2)n1 (centres unmarked) [I-172, N-[3-carbamoyl-1-[4-[5-[2-[[2-(2,6-dioxo-3-piperidyl)-1,3-dioxo-isoindolin-4-yl]amino]ethylamino]pentylcarbamoyl]phenyl]pyrazol-4-yl]-2-[2-(2,2,2-trifluoroethylamino)-4-pyridyl]oxazole-4-carboxamide] | A (>50% degradation) |  |  |  |  |  |  |  |  |  |  |  | 
2 | NC(=O)c1nn(-c2ccc(C(=O)NCCOCCOCCNc3cccc4c3C(=O)N(C3CCC(=O)NC3=O)C4=O)cc2)cc1NC(=O)c1coc(-c2ccnc(NCC(F)(F)F)c2)n1 (centres unmarked) [I-127, N-[3-carbamoyl-1-[4-[2-[2-[2-[[2-(2,6-dioxo-3-piperidyl)-1,3-dioxo-isoindolin-4-yl]amino]ethoxy]ethoxy]ethylcarbamoyl]phenyl]pyrazol-4-yl]-2-[2-(2,2,2-trifluoroethylamino)-4-pyridyl]oxazole-4-carboxamide] | A (>50% degradation) | 31.29% | 5.89% | 1.58% | 12.53% | 28.96% | 12.66% | 6.74% | 25.83% | 23.14% | 2.71% | 3.36% | 17.79%
